Key:
Test in all cases: Minimal inhibitory concentration in 0.25x TSB, microtiter plates
Type in all cases: cell-based
[1] = tested on: Escherichia coli strain D31; conditions: E. coli
Experimental: (§1) Antimicrobial activity of TAP (SEQ ID NO: 1) and
(§2) Magainin 2-NH2 (SEQ ID NO: 6). Minimal inhibitory
(§3) concentrations were determined by incubating approximately
(§4) 3.125 μg/ml of the appropriate peptide.
*strain D31 (Steiner, H. D., Hultmark, A., supra, (1981)

[2] = tested on: Candida albicans (ATCC 14053)
Experimental: as §1, §2, §3, §4

[3] = tested on: Klebsiella pneumonia (ATCC 13883)
Experimental: as §1, §2, §3, §4

[4] = tested on: Pseudomonas aeruginosa (ATCC 27853); conditions: 2.5 × 10^4 microbe in 0.25× TSB, overnight 37° C.
Experimental: as §1, §2, §3, §4

[5] = tested on: Staphylococcus aureus (ATCC 25923); conditions: 2.5 × 10^4 microbe in 0.25× TSB, overnight 37° C.
Experimental: as §1, §2, §3, §4

For “TAP: 38-residue cysteine-rich antimicrobial peptide purified from bovine tracheal mucosa, SEQ ID NO:1 (NPVSCVRNKGICVPIRCPGSMKQIGTCVGRAVKCCRKK)”, the “Antimicrobial activity in vitro (in words)” value (shortened to “Antimicrobial activity”) [1] was “most active”, the “Antimicrobial activity” value ([2]; C. albicans) was “significant antimicrobial activity” and the Minimal inhibitory concentration ([2]; Candida albicans ATCC 14053, 2.5 × 10^4 microbe in 0.25× TSB, overnight 37° C.) was 6.25 to 12.5 µg/mL. The “Antimicrobial activity” value ([3]; K. pneumonia) was “most active”, the Minimal inhibitory concentration ([3]; Klebsiella pneumonia ATCC 13883, 2.5 × 10^4 microbe in 0.25× TSB, overnight 37° C.) was 12.5 to 25 µg/mL and the Minimal inhibitory concentration [4] was 25 to 50 µg/mL. The Minimal inhibitory concentration [5] was 25 to 50 µg/mL.

Source: patent US5432270A, “DNA encoding tracheal antimicrobial peptides” (priority 1993, dated 1995)
